Data on 1 molecule can be found in ChEMBL document CHEMBL5728008, “Compound used as Bruton's tyrosine kinase inhibitor and preparation method and application thereof” (2020).

What is called IC50 is the midpoint of a concentration-inhibition curve.

Structures are written as SMILES.

This assay concerns the target Tyrosine-protein kinase BTK (Homo sapiens, UniProt Q06187). In words: In Vitro Assay for the Inhibition of BTK Kinase Activity: 1: Test Principle:Mobility-Shift Assay, which is microfluidic chip technology, applies the basic concept of capillary electrophoresis to microfluidic environments. The substrate used for the experiment is a polypeptide with a fluorescent label. Under the action of enzyme in the reaction system, the substrate is transformed into a product, and the charge the substrate carries also changes accordingly. The use of the charge difference between the substrate and the product involved in Mobility-Shift Assay achieves the separating of the two, and they are tested respectively.

Chain of Tyrosine-protein kinase BTK (Q06187 whole entry): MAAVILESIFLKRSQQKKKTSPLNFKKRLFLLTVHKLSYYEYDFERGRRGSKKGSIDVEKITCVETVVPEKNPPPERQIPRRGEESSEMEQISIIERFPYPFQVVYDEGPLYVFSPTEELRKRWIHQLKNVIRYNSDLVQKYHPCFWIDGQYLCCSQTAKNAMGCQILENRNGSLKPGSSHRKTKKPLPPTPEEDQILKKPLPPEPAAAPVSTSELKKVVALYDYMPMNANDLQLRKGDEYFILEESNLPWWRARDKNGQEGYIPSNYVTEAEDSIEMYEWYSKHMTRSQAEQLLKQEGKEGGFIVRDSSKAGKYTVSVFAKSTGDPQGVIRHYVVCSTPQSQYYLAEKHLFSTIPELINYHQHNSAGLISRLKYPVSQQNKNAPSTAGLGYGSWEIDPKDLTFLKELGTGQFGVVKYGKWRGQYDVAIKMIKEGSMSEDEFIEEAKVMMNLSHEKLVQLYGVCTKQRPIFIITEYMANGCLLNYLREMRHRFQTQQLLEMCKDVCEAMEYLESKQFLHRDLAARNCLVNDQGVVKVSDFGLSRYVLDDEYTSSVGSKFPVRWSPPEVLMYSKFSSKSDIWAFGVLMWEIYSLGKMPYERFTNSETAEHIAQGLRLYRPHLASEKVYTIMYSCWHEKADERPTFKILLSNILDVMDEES

Regarding `C=CC(=O)N1CC2CCCC2C1c1nc(-c2ccc(C(=O)Nc3ccccn3)cc2)c2c(N)nccn12` (stereo unspecified), the half-maximal inhibitory concentration (IC50) came to 4.7 nM.
